Data from ChEMBL document CHEMBL4229361, “A novel tetrahydroisoquinoline (THIQ) analogue induces mitochondria-dependent apoptosis” (Eur J Med Chem, 2018).

Tested on: A549
Experiment: Antiproliferative activity against human A549 cells after 48 hrs by CCK-8 assay
Format: functional, cell-based
Settings: A549, 48 h

| SMILES | IC50 [µM] |
| --- | --- |
| C(#CC1NCCc2cc(OCc3ccccc3)c(OCc3ccccc3)cc21)c1ccccc1 (configuration not stated) | 22.4 |
| COc1cc2c(cc1OC)C(C#Cc1ccccc1)NCC2 (configuration not stated) | 40.1 |
